# Test results published in patent publication US5340788A, “Diphenylsulfone derivatives and heat sensitive recording materials” (Nippon Soda Co., Ltd., priority 1990, dated 1994).
# Key:
# [1] = Stability of background to heat and humidity (heat sensitive recording paper, Macbeth Reflection Densitometer); settings: reflection density, filter #106; for Stability of Background to heat and humidity, After exposing: after 50° C. under 80% humidity; for Stability of Background to heat and humidity, Before exposing: before 50° C., 80% humidity
# Text: (§1) Example 4 (Preparation of Heat Sensitive Recording Paper)
# (§2) A compound in the invention (or a reference compound)
# (§3) Each above mixture was sufficiently homogenized by sand grinder to prepare Liquid A, B or C. One weight part of Liquid A, 2 weight parts of Liquid B and 1 weight part of Liquid C. were mixed to prepare a dispersion liquid to tint. The liquid was coated on white paper by applying Wire Rod No. 12, then dried to manufacture the heat sensitive recording paper.
# (§4) In the preparation of Liquid C in Example 4, instead of the compound in the invention, 4-glycidyloxy-4'-isoprpoxydiphenylsulfone was taken place, the other components were same as Example 4 and the heat sensitive recording paper was similarly prepared.
# (§5) A part of the heat sensitive recording papers which were prepared according to the Example 4 and the Comparative examples were heated from both sides to develop color at 150° C. by dry-heating tester (Kishino Science machinery Co.). Then, after they were placed in Incubator Controlled Humidity and Temperature at 50° C. under 80% humidity and in Fademeter (Type FAL-5, Suga Tester Co.) exposing for 3 hours, the stability of backgrounds, of the color images and anti-photo stability were determined by Macbeth Reflection Densitometer (Type RD-514, Ratten #106).
# [2] = Photostability of developed image (Fademeter, Macbeth Reflection Densitometer); settings: reflection density, filter #106; for Photostability of developed image, After exposing: after Fademeter exposing for 3 hours; for Photostability of developed image, Before exposing: color developed at 150° C., before Fademeter
# Text: as §1, §2, §3, §4, §5
# [3] = test system: Salmonela strains (TA-100 and TA-1535) and E. coli (WP2uvrA); experiment: Mutagenic activity, Ames test; type: cell-based; settings: for increase of recovery mutation colony: 128-5000 μg/plate, metabolic activation (S9) and inactivation, all strains; for mutagenicity (conclusion of Ames test): with and without metabolic activation
# Protocol: (§6) Mutagenic activity of the compound No. 1 in the invention and 4,4'-diglycidyldiphenylsulfone was evaluated by Ames test for using Salmonela strains (TA-100 and TA-1535) and E. coli (WP2uvrA) under conditions of metabolic activation and metabolic inactivation. The metabolic activation system was consisted of supernatant of 9000 G in centrifugation from rat liver homogenate (S9) mixture which was induced by 5,6-benzoflavone or phenobar bital, and a coenzyme. Both test compounds were prepared at concentration of 50 mg/mL by using dimethylformamide. Then, they were successively diluted to prepare lower concentration solutions by the same solvent. The concentration of each test substance is adjusted to be 128, 320, 800, 2000 and 5000 μg/plate. The test mixture of the bacteria, each test substance and sodium phosphate buffer solution (S9 mixture under the metabolic activation condition) was incubated at 37° C. for 20 minutes. After the incubation the mixture was added by soft agar solution containing minimum nutrients, homogeneously inoculated on an agar plate and incubated at 37° C. for 65 hours. […] It was concluded from the results that the compound No 1. was not mutagenic, but 4,4'-diglycidyldiphenylsulfone was mutagen.
# [4] = Deposited materials observed after incubation in Ames test; type: physicochemical; settings: both conditions of metabolic activation and inactivation
# Protocol: as §6
SMILES,"Stability of Background to heat and humidity, After exposing [1]","Stability of Background to heat and humidity, Before exposing [1]","Photostability of developed image, After exposing [2]","Photostability of developed image, Before exposing [2]",increase of recovery mutation colony [3],mutagenicity (conclusion of Ames test) [3],"mutagenicity (conclusion of Ames test) ([3]; listed as 4,4'-diglycidyldiphenylsulfone)",concentration above which deposited materials were observed [4],mutagenicity (conclusion of Ames test) ([3]; listed as compound No. 1)
C=CCOc1ccc(S(=O)(=O)c2ccc(OCC3CO3)cc2)cc1 (stereo not drawn) [(7)],0.07,0.07,1.12,1.21,–,–,–,–,–
"O=S(=O)(c1ccc(OCC2CO2)cc1)c1ccc(OCC2CO2)cc1 (stereo not drawn) [4,4'-diglycidyloxydiphenylsulfone, reference compound]",–,–,–,–,increases of recovery mutation colony were in all strains,mutagenic,mutagen,320-800 μg/plate,–
"CC(C)Oc1ccc(S(=O)(=O)c2ccc(OCC3CO3)cc2)cc1 (stereo not drawn) [compound 1, 4-glycidyloxy-4'-isoprpoxydiphenylsulfone, reference compound]",0.17,0.07,1.00,1.19,–,–,–,–,–
"Cc1ccc(COc2ccc(S(=O)(=O)c3ccc(OCC4CO4)cc3)cc2)cc1 (stereo not drawn) [compound (5), 4-(4-methylbenzyloxy)-4'-glycidyloxydiphenylsulfone]",0.10,0.08,1.12,1.20,–,–,–,–,–

# More lines, main results first:
"Stability of Background to heat and humidity, After exposing [1]","Stability of Background to heat and humidity, Before exposing [1]","Photostability of developed image, After exposing [2]","Photostability of developed image, Before exposing [2]",SMILES,increase of recovery mutation colony [3],mutagenicity (conclusion of Ames test) [3],"mutagenicity (conclusion of Ames test) ([3]; listed as 4,4'-diglycidyldiphenylsulfone)",concentration above which deposited materials were observed [4],mutagenicity (conclusion of Ames test) ([3]; listed as compound No. 1)
0.09,0.07,1.14,1.23,CC1(COc2ccc(S(=O)(=O)c3ccc(OCc4ccc(Cl)cc4)cc3)cc2)CO1 (stereo not drawn) [(4)],–,–,–,–,–
0.11,0.07,1.15,1.23,O=S(=O)(c1ccc(OCc2ccc(Cl)cc2)cc1)c1ccc(OCC2CO2)cc1 (stereo not drawn) [(2)],–,–,–,–,–
0.12,0.09,1.16,1.22,Cc1ccc(COc2ccc(S(=O)(=O)c3ccc(OCC4(C)CO4)cc3)cc2)cc1 (stereo not drawn) [(6)],–,–,–,–,–
0.07,0.06,1.13,1.21,"CC1(COc2ccc(S(=O)(=O)c3ccc(OCc4ccccc4)cc3)cc2)CO1 (stereo not drawn) [compound (1), 4-benzyloxy-4'-(2-methylglycidyloxy)diphenylsulfone]",No increase of recovery mutation colony was observed in any strain,–,–,> 800 μg/plate,not mutagenic
0.10,0.08,1.09,1.22,CC1(COc2ccc(S(=O)(=O)c3ccc(OCc4ccccc4Cl)cc3)cc2)CO1 (stereo not drawn) [(3)],–,–,–,–,–
